The source of these data is article PMC10981686, “Structural bases of inhibitory mechanism of CaV1.2 channel inhibitors” (Nature Communications, 2024).

Where “and” joins values, the source holds several entries; their conditions need not be identical. Equal entries are not always repeated. Where two headings read alike, the source gives them in different places.

The subject of test [1] is CaV1.2 with substitutions at positions T1056 and Q1060. On the set-up: method as in PMID 9006896. As to conditions: result in words; cited from earlier work.
The target in test [2] is T1, CaV1.2^WT (human CaV1.2 with α2δ1 and β2) (Homo sapiens, UniProt Q13936).
T1 construct: superfolder GFP (sfGFP) (C); Twin-Strep (C); expressed in transfected cells; host or cells: HEK293T
The experiment in a line: whole-cell patch clamp inhibition curves in HEK293T cells, wild-type CaV1.2. Format: cell-based. The settings on record: for logIC50 (best-fit value): X values in μM. The method, then:
(§1) Whole-cell voltage-clamp recordings were carried out using human embryonic kidney 293 T (HEK293T) cells, which were cultured in Dulbecco’s Modified Eagle Medium (DMEM, Gibco) supplemented with 10% (v/v) fetal bovine serum (FBS, PAN-Biotech) at 37 °C supplemented with 5% CO2. Three distinct recombinant baculoviruses encoding CaV1.2, α2δ1, and β2 were used to coinfect HEK293T cells once they reached a confluence of 40–60%. After 8−12 h, transfected cells were re-plated on 8 × 8 mm coverslips, and sodium butyrate was added to the culture at a final concentration of 0.5−2.5 mM to improve protein expression. Whole-cell recordings of activation curves were performed from isolated GFP-positive HEK293T cells at 20−28 h after transfection with recombinant baculoviruses. […] Pipettes were pulled to obtain final resistances of 2−6 MΩ with a Sutter P-97 puller and heat-polished before employment. […] The series resistance was not compensated in these experiments. […] Signals were digitized at 10 kHz and low-pass filtered at 2 kHz. Data were analyzed with Clampfit 10.7.
(§2) To measure the inhibition curves, 2 μg endotoxin-free plasmids of wild-type (WT) or mutants generated by PCR expressing CaV1.2, α2δ1, and β2 were transiently transfected using 1.2 μg Lipofectamine 2000 Reagent (Thermo Fisher Scientific). For curves determining, re-plated cells were held at −100 mV, and then depolarized at +10 mV to elicit inward currents. To ensure stable currents during measurement, a series of traces were pre-recorded at a specific time interval without drug application for each construct. […] Perfusions applied using a gravity-driven system. […] Data analyses were performed using Origin 2022 (Origin Lab Corporation), GraphPad Prism 9 (GraphPad Software, Inc.) and Adobe illustrator 2018.

The next test deals with T2, CaV1.2^T1056Y (Homo sapiens, UniProt Q13936, T1056Y).
T2 construct: superfolder GFP (sfGFP) (C); Twin-Strep (C); expressed in transfected cells; host or cells: HEK293T
The experiment in a line: whole-cell patch clamp inhibition curves in HEK293T cells, T1056Y mutant. Format: cell-based. How it is done:
as §1, §2
For orientation: The patch-clamp technique gives a direct electrical read-out from membranes.

Another test has as its target T3, CaV1.2^Q1060M (Homo sapiens, UniProt Q13936, Q1060M).
T3 construct: superfolder GFP (sfGFP) (C); Twin-Strep (C); expressed in transfected cells; host or cells: HEK293T
The experiment in a line: whole-cell patch clamp inhibition curves in HEK293T cells, Q1060M mutant. It is filed as cell-based. The method, then: as §1, §2

For another test, the target named is T4, CaV1.2^Q1060F (Homo sapiens, UniProt Q13936, Q1060F).
T4 construct: superfolder GFP (sfGFP) (C); Twin-Strep (C); expressed in transfected cells; host or cells: HEK293T
T4 sequence (Q13936 whole entry Q1060F): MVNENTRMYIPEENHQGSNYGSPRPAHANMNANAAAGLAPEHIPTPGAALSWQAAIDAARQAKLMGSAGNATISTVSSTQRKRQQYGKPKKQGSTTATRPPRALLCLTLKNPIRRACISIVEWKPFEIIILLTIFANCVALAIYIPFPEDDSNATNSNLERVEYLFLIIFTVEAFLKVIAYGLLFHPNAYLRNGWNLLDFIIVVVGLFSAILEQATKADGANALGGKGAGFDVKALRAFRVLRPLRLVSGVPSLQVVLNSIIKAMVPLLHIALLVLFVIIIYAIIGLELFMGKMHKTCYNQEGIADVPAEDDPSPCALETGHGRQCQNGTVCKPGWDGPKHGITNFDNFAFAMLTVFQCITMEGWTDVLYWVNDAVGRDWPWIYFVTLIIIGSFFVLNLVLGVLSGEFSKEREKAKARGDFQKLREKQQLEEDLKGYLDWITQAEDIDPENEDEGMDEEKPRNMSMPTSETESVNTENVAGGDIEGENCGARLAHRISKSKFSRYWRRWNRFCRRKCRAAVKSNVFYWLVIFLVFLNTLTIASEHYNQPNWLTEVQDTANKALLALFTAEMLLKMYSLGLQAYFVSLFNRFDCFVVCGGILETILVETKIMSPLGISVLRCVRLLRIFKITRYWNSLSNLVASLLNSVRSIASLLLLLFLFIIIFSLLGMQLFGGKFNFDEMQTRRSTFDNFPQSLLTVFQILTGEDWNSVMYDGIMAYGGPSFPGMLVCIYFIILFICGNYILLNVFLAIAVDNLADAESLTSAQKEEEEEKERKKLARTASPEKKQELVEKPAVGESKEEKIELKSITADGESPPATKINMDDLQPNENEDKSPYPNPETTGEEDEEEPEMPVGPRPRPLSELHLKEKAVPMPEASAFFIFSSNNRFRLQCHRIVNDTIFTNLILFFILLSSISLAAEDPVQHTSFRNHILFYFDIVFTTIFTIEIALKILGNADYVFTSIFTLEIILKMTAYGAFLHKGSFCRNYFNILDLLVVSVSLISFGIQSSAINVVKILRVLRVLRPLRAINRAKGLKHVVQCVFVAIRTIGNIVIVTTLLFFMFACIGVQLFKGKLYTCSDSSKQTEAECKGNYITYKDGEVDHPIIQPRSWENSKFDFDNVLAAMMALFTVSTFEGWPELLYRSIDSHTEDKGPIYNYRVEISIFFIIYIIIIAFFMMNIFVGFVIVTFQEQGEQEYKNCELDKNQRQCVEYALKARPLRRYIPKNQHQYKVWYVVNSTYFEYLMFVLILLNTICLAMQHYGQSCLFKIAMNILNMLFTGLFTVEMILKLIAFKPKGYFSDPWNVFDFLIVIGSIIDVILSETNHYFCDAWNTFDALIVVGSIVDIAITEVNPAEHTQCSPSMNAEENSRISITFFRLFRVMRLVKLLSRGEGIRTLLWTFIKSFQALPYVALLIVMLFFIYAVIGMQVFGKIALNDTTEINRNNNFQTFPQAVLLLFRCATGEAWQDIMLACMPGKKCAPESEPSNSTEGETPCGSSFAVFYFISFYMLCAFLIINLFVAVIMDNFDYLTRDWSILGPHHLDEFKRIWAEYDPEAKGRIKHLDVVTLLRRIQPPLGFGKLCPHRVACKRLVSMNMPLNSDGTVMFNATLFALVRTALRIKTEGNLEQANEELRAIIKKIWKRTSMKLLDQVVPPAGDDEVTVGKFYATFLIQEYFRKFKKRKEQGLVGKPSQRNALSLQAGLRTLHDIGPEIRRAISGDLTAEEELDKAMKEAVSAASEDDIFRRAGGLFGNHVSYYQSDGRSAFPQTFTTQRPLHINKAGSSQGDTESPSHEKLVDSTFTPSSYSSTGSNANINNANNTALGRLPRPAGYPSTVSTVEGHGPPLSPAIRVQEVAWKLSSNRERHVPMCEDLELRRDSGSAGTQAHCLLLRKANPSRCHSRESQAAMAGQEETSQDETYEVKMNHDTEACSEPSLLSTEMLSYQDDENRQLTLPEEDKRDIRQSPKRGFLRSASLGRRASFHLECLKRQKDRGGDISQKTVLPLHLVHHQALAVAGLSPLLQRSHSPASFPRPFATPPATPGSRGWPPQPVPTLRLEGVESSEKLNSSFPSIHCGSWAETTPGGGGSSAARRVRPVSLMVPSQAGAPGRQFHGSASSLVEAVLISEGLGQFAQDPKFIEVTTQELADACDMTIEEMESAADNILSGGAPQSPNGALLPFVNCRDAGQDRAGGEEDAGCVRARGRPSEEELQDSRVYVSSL
T4 sequence (P54289 25-946 partner limits assumed): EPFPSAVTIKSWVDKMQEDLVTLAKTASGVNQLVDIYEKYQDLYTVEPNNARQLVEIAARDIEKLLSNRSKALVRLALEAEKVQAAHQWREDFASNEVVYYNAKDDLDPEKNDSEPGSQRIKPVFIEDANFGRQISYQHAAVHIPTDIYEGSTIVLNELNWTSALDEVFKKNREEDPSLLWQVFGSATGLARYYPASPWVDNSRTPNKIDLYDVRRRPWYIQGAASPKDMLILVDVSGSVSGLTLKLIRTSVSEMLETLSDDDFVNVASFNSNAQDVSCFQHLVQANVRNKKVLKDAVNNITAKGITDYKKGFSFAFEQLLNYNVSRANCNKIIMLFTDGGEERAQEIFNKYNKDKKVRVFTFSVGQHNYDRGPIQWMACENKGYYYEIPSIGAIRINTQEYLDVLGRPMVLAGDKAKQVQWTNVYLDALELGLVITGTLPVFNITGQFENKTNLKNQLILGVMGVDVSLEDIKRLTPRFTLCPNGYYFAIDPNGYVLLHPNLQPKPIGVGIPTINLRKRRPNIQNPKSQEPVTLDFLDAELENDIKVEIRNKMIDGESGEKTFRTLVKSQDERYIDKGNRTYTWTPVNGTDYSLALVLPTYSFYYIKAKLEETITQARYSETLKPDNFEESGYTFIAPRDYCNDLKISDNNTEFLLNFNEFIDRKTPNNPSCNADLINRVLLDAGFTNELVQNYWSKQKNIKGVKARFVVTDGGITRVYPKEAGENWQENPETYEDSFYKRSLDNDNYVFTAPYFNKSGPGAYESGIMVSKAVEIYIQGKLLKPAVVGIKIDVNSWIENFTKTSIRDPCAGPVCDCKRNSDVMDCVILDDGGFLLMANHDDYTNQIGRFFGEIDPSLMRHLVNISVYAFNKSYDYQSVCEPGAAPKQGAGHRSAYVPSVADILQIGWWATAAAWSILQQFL
T4 sequence (P54289 947-1103 partner limits assumed): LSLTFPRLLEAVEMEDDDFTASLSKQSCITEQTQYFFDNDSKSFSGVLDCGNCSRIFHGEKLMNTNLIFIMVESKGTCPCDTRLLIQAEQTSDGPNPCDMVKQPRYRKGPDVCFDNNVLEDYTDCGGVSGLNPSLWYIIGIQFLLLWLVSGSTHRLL
T4 sequence (Q08289 1-606 isoform Q08289-3 partner): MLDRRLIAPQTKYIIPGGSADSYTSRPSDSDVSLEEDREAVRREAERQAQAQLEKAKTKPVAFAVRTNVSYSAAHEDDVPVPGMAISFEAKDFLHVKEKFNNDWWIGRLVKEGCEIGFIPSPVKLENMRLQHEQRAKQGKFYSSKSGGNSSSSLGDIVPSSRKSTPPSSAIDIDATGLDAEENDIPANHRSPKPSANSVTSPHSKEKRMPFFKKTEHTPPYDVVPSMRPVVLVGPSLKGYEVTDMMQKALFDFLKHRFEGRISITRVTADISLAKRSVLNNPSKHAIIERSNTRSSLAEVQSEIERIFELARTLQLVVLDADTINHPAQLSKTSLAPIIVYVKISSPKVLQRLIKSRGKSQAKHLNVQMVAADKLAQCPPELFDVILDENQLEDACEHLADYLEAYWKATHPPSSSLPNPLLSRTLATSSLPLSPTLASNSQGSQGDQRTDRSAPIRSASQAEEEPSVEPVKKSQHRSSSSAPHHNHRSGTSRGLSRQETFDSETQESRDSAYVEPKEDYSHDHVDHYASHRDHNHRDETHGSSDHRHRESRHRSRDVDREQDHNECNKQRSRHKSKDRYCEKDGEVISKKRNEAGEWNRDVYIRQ
Description: whole-cell patch clamp inhibition curves in HEK293T cells, Q1060F mutant. Format: cell-based. The method, then: as §1, §2

A further test relates to N-type CaV channels. The settings on record: cited from earlier work.
In a further test the test system is T-type CaV channels. The settings on record: cited from earlier work.
Test [3] concerns L-type and T-type channels. On the set-up: method as in earlier work. As to conditions: result in words, 82 and references of Supplementary Table 2, cited from earlier work.
The target of a further test is T5, CaV1.2^N741W (Homo sapiens, UniProt Q13936, N741W).
T5 construct: superfolder GFP (sfGFP) (C); Twin-Strep (C); expressed in transfected cells; host or cells: HEK293T
The experiment in a line: whole-cell patch clamp inhibition curves in HEK293T cells, N741W mutant. It is filed as cell-based. The method, then:
as §1, §2

A further test addresses T6, CaV1.2^N1179W (Homo sapiens, UniProt Q13936, N1179W).
T6 construct: superfolder GFP (sfGFP) (C); Twin-Strep (C); expressed in transfected cells; host or cells: HEK293T
Description: whole-cell patch clamp inhibition curves in HEK293T cells, N1179W mutant. Format: cell-based. How it is done:
as §1, §2

T3 sequence (Q13936 whole entry Q1060M): as the sequence (Q13936 whole entry Q1060F) above, with F1060M counted along it
T3 sequence (P54289 25-946 partner limits assumed): as the sequence (P54289 25-946 partner limits assumed) above
T3 sequence (P54289 947-1103 partner limits assumed): as the sequence (P54289 947-1103 partner limits assumed) above
T3 sequence (Q08289 1-606 isoform Q08289-3 partner): as the sequence (Q08289 1-606 isoform Q08289-3 partner) above

Take `CC1=C(C(=O)OC(C)C)[C@@H](c2cccc3nonc23)C([N+](=O)[O-])=C(C)N1` [R202-791]: in test [1], the “effect of substitutions at T1056 and Q1060 on sensitivity of CaV1.2 to the drug” value is “almost abolished the sensitivity”.
For the molecule `COC(=O)C1=C(C)NC(C)=C(C(=O)OC2CCCN(Cc3ccccc3)C2)C1c1cccc([N+](=O)[O-])c1` (stereo not drawn) [benidipine], the remaining activity at 0.01 µM in test [2] (HEK-293T, benidipine 0.01 μM, WT, single experiments, Supplementary Fig. 7c source data, read-out: normalized current (I/Imax)) is 91%; on CaV1.2^T1056Y (HEK-293T, benidipine 0.01 μM, T1056Y, single experiments, Supplementary Fig. 7c source data, read-out: normalized current (I/Imax)), 99.8%; on CaV1.2^Q1060M (HEK-293T, benidipine 0.01 μM, Q1060M, single experiments, Supplementary Fig. 7c source data, read-out: normalized current (I/Imax)), 97%; at CaV1.2^Q1060F (HEK-293T, benidipine 0.01 μM, Q1060F, single experiments, Supplementary Fig. 7c source data, read-out: normalized current (I/Imax)), 93.9%. Besides, the remaining activity at 1 µM was found to be 27.4% in [2] (HEK-293T, benidipine 1 μM, WT, single experiments, Supplementary Fig. 7c source data, read-out: normalized current (I/Imax)); 85.3% at CaV1.2^T1056Y (HEK-293T, benidipine 1 μM, T1056Y, single experiments, Supplementary Fig. 7c source data, read-out: normalized current (I/Imax)); 73.2% on CaV1.2^Q1060M (HEK-293T, benidipine 1 μM, Q1060M, single experiments, Supplementary Fig. 7c source data, read-out: normalized current (I/Imax)); 81.9% on CaV1.2^Q1060F (HEK-293T, benidipine 1 μM, Q1060F, single experiments, Supplementary Fig. 7c source data, read-out: normalized current (I/Imax)). In [2] (benidipine 100 μM), this molecule gave a CaV1.2 current reduction of 90%. The “HillSlope (best-fit value)” value was -0.5499 in test [2] (benidipine, WT); -0.3204 on CaV1.2^T1056Y (benidipine, T1056Y); -0.4107 on CaV1.2^Q1060M (benidipine, Q1060M); -0.3921 at CaV1.2^Q1060F (benidipine, Q1060F). In addition, the “logIC50 (best-fit value)” value in test [2] (benidipine, WT) is listed as -0.6638; at CaV1.2^T1056Y (benidipine, T1056Y, X values in μM) it was 2.427; at CaV1.2^Q1060M (benidipine, Q1060M, X values in μM), 0.8728; at CaV1.2^Q1060F (benidipine, Q1060F, X values in μM) it was 1.07. Also, the remaining activity at 0.1 µM at CaV1.2^T1056Y (HEK-293T, benidipine 0.1 μM, T1056Y, single experiments, Supplementary Fig. 7c source data, read-out: normalized current (I/Imax)) is 91.4%; at CaV1.2^Q1060M (HEK-293T, benidipine 0.1 μM, Q1060M, single experiments, Supplementary Fig. 7c source data, read-out: normalized current (I/Imax)), 88.7%; on CaV1.2^Q1060F (HEK-293T, benidipine 0.1 μM, Q1060F, single experiments, Supplementary Fig. 7c source data, read-out: normalized current (I/Imax)), 88.2%. Also, the remaining activity at 10 µM at CaV1.2^T1056Y (HEK-293T, benidipine 10 μM, T1056Y, single experiments, Supplementary Fig. 7c source data, read-out: normalized current (I/Imax)) was 67.2%; at CaV1.2^Q1060M (HEK-293T, benidipine 10 μM, Q1060M, single experiments, Supplementary Fig. 7c source data, read-out: normalized current (I/Imax)) it was 46.7%. In addition, the IC50 (as a rule, the point on the concentration scale where inhibition reaches its midpoint) was greater than 100 µM against CaV1.2^T1056Y (held at -100 mV, depolarized at +10 mV every 1 min, n = 4); 7.5 µM on CaV1.2^Q1060M (IC50 of benidipine on CaV1.2^Q1060M, held at -100 mV, depolarized at +10 mV every 1 min, n = 4); 7.46 µM on CaV1.2^Q1060M (benidipine, Q1060M, variable slope fit, X values in μM per sheet Supplementary Figure 7c, read-out: IC50 (best-fit value)); 11.7 µM at CaV1.2^Q1060F (IC50 of benidipine on CaV1.2^Q1060F, held at -100 mV, depolarized at +10 mV every 1 min, n = 4); 11.7 µM on CaV1.2^Q1060F (benidipine, Q1060F, variable slope fit, X values in μM per sheet Supplementary Figure 7c, read-out: IC50 (best-fit value)); roughly 35 µM in the test with N-type CaV channels. Also, the IC50 in the test on T-type CaV channels is 11 µM and ~11 µM. Further, the remaining activity at 100 µM at CaV1.2^Q1060M (HEK-293T, benidipine 100 μM, Q1060M, single experiments, Supplementary Fig. 7c source data, read-out: normalized current (I/Imax)) turned out to be 20.1%. Besides, the “selectivity class for L-type and T-type channels” value (from here on “selectivity class”) in [3] is listed as “L/T-type selective”; in [3] (listed as Benidipine) it was “non-selective”.
`COCCOC(=O)C1=C(C)NC(C)=C(C(=O)OC/C=C/c2ccccc2)C1c1cccc([N+](=O)[O-])c1` (stereo not drawn) [cilnidipine, Cilnidipine]: the “inhibition of T-type channels” value with T-type CaV channels (result in words) was “cannot inhibit T-type channels”. Moreover, the “selectivity class” value in [3] is reported as “L-type selective”.
Consider `COC(=O)C1=C(C)NC(C)=C(C(=O)OC)C1c1ccccc1[N+](=O)[O-]` [nifedipine], for which the “sensitivity of N-type CaV channels” value with N-type CaV channels (result in words) is on record as “no sensitivity”. Further, the “sensitivity of T-type CaV channels” value in the test on T-type CaV channels (result in words) was “no sensitivity”. Further, the “selectivity class” value in test [3] was “L-type selective”.
As to `CCOC(=O)C1=C(C)NC(C)=C(C(=O)OC)C1c1cccc([N+](=O)[O-])c1` (stereo not drawn) [nitrendipine, Nitrendipine], the “selectivity class” value in [3] was “L-type selective”.
Regarding `COC(=O)C1=C(C)NC(C)=C(C(=O)OCCN2CCN(C(c3ccccc3)c3ccccc3)CC2)C1c1cccc([N+](=O)[O-])c1` (stereo not drawn) [manidipine, Manidipine], the “selectivity class” value in test [3] is “L/T-type selective”; in test [3] (listed as Manidipine), “non-selective”.
For `COCCOC(=O)C1=C(C)NC(C)=C(C(=O)OC(C)C)C1c1cccc([N+](=O)[O-])c1` (stereo not drawn) [nimodipine, Nimodipine], in the test with T-type CaV channels (CaV3.1, CaV3.2, CaV3.3), the “preference among T-type channels” value is “preference for inhibiting CaV3.2 and CaV3.3 over CaV3.1”. For the same molecule, the “selectivity class” value in test [3] is “non-selective”.
As for `COc1ccc2cc1Oc1ccc(cc1)C[C@H]1c3cc(c(OC)cc3CCN1C)Oc1c(OC)c(OC)cc3c1[C@H](C2)N(C)CC3` [tetrandrine], the remaining activity at 0.001 µM in [2] (HEK-293T, tetrandrine 0.001 μM, WT, single experiments, Fig. 3f source data, read-out: normalized current (I/Imax)) is 84.9%; at CaV1.2^N741W (HEK-293T, tetrandrine 0.001 μM, N741W, single experiments, Fig. 3f source data, read-out: normalized current (I/Imax)), 90.1%; on CaV1.2^N1179W (HEK-293T, tetrandrine 0.001 μM, N1179W, single experiments, Fig. 3f source data, read-out: normalized current (I/Imax)), 86.3%. The IC50 is ~0.0142 µM and 0.0142 µM in [2] (IC50 of tetrandrine on CaV1.2^WT, held at -100 mV, depolarized at +10 mV every 20 s, n = 10); 0.0713 µM against CaV1.2^N741W (IC50 of tetrandrine on CaV1.2^N741W, held at -100 mV, depolarized at +10 mV every 20 s, n = 10); 0.0712 µM at CaV1.2^N741W (tetrandrine, N741W, variable slope fit, bottom 0, top 1, X values in μM per sheet Figure 3f, read-out: IC50 (best-fit value)); 0.0418 µM at CaV1.2^N1179W (held at -100 mV, depolarized at +10 mV every 20 s, n = 10). For the same molecule, the CaV1.2 current reduction in test [2] (tetrandrine 10 μM) is given as 90%. Also, the “HillSlope (best-fit value)” value in test [2] (tetrandrine, WT) was -0.4914; at CaV1.2^N741W (tetrandrine, N741W) it was -0.3074; on CaV1.2^N1179W (tetrandrine, N1179W) it was -0.3696. Further, the “logIC50 (best-fit value)” value in test [2] (tetrandrine, WT) is given as -1.849; at CaV1.2^N741W (tetrandrine, N741W, X values in μM), -1.147; on CaV1.2^N1179W (tetrandrine, N1179W, X values in μM), -1.379. In addition, on CaV1.2^N741W (HEK-293T, tetrandrine 0.1 μM, N741W, single experiments, Fig. 3f source data, read-out: normalized current (I/Imax)), the remaining activity at 0.1 µM was 49.4%. Besides, the remaining activity at 10 µM at CaV1.2^N741W (HEK-293T, tetrandrine 10 μM, N741W, single experiments, Fig. 3f source data, read-out: normalized current (I/Imax)) was 22.8%.
Take `CCOC(=O)C1=C(C)NC(C)=C(C(=O)OC)C1c1cccc(Cl)c1Cl` (stereo not drawn) [felodipine, Felodipine]: the “selectivity class” value in [3] is “L-type selective”.
